Here are results for 3 compounds from US20020115724A1, “Methods and agents for inhibiting protein aging” (priority 1985, published 2002).

The subject of one data set is bovine serum albumin. The data set is described as follows: Formation of fluorescent advanced glycosylation end products in albumin incubated with glucose. Conditions: 200 mM agent, 6 mg/mL BSA, 200 mM glucose, 37° C., two-week incubation, vs control. Format: biochemical. Here is the method:
To measure the ability of certain of the agents of the present invention to inhibit the production of advanced glycosylated end products in vitro, albumin and glucose were incubated together for two weeks in the presence of several test agents. Samples were taken at regular intervals for analysis. Advanced glycosylation end products were measured as appearance of fluorescent compounds, and early glycosylation products were measured by incorporation of radiolabeled glucose into albumin. Reaction conditions were as follows. […]
After the incubation periods, samples were treated as follows. After dialysis to remove all unbound glucose, the amount of protein present was measured with a standard dye-binding assay. The amount of glucose which became bound to the albumin, a measure of early glycosylation products, was determined by precipitating albumin with trichloroacetic acid and measuring the radioactivity of the bound glucose using scintillation counting.
The results of this experiment are expressed graphically in FIG. 1. For each sample, incorporation of radiolabeled glucose is indicated by the solid portion of the bar, and fluorescence is indicated in the open portion of the bar. All values are expressed as per milligram of albumin. […]

A further data set deals with gelatin (collagen). The data set is described as follows: Protein trapping: radioiodinated albumin bound to gelatin (collagen) agarose beads with glucose-6-phosphate. Format: biochemical. As to conditions: agent 200 mN, 400 mN glucose-6-phosphate, two weeks, 37° C. From the text:
To more precisely measure the effect of the agents on the inhibition of protein crosslinking, an assay system was devised to measure the extent of in vitro binding of a soluble protein to an insoluble protein. This assay system mimics the events which occur in tissues in which serum proteins become bound to proteins in extravascular matrix and which lead to accumulation of protein and narrowing of vessel lumina in several other tissues. These events in vivo give rise to kidney disease and atherosclerotic disease, and lead to the pathologies associated with diabetes and aging.
To measure protein trapping (i.e., binding or accumulation), gelatin (collagen) was coupled to activated agarose beads (Affigel 10, Bio-Red Laboratories) by routine methods. After coupling, all remaining active sites on the beads were quenched by reaction with glycine ethyl ester.
The beads were incubated for two weeks with bovine serum albumin and 400 mN glucose-6-phosphate, a more reactive form of glucose which forms early glycosylation products with proteins more rapidly than does glucose. […] The bovine serum albumin was radioiodinated so that the amount which became bound to the beads could be measured. […]
After a two-week incubation of the reaction mixtures at 37° C., the beads were washed extensively with chaotropic agents and the covalently bound radioactivity was determined. […]

The test system of the next data set is rats. Conditions: subcutaneously, rats; cited from earlier work.
Another data set has as its system mice. As to conditions: subcutaneously; cited from earlier work.
In data set [1] the test system is demineralized bone matrix particles. Description: Bone differentiation of AGE-modified demineralized bone matrix implanted in rats. As to conditions: matrix incubated with glycolaldehyde. Type of data set: in vivo, rat. The method, then:
In order to assess the possible role of hyperglycemia-induced matrix modifications in this process, demineralized bone matrix particles from 35 week old normal Long-Evans rats were prepared. Matrix is incubated in phosphate buffered saline alone (PBS), PBS containing various sugar precursors of AGE (PBS−G), and PBS with sugars plus the AGE-inhibitor aminoguanidine (PBS−G+AG). After incubation, the matrix is washed and implanted subcutaneously in normal rats. Twelve days after implantation, ^45CaCl2 is injected to determine implant mineralization, and alkaline phosphatase activity is measured to assess osteoblast function. Duplicate specimens are fixed, embedded and stained for histologic evaluation.

For the compound `NCCCC[C@H](N)C(=O)O` [Lysine, lysine], in the data set on bovine serum albumin, the “formation of fluorescent compounds (advanced glycosylation end products)” value is on record as “appeared to cause an increase in fluorescent compound formation”. In addition, the “amount of protein trapping (radiolabeled albumin bound to collagen beads)” value in the data set with gelatin (collagen) is “reduced the amount of protein trapping to an extent similar to that of aminoguanidine”.
`N=C(N)NN` [aminoguanidine base, aminoguanidine]: the results for the LD50 in the data set on rats and in the data set on mice were 1258 mg/kg and 963 mg/kg, respectively.
On to `O=CCO` [glycolaldehyde, reference compound], for which the “matrix AGE content (by specific fluorescence), increase” value in data set [1] is listed as “over twofold”. The “inhibition of bone differentiation (45CaCl2 uptake, alk phos, histology)” value in data set [1] (implanted subcutaneously, 12 days) is on record as “more than 90%”.

For orientation: LD50 means the dose expected to kill half of the subjects tested.
